Experimental findings from patent US12351576B2, “FGFR inhibitor, preparation method therefor and application thereof” (Abbisko Therapeutics Co., Ltd., priority 2018, dated 2025) are described below.

The target in one assay is FGFR1 (Homo sapiens (Human), UniProt P11362). The experiment in a line: In vitro biochemical kinase assay (Caliper Assay), FGFR1. The settings on record: enzyme 0.25 nM, ATP 382 μM, 20 minutes; read-out: Enzymatic activity IC50(nM) FGFR1. As for the experimental part:
(§1) I. In Vitro Biochemical Kinase Assay of FGFR 1˜3
(§2) Caliper Assay was used in the present invention to determine the inhibitory activities of the compounds against FGFR1, FGFR2, and FGFR3. The specific experimental procedure was as follows: • 1. The kinase reaction in the present invention was carried out in 384-well plates, the kinase(Carna) at a certain concentration and ATP at a certain concentration and 1 μM of peptide FAM-P22 (GL Biochem, Cat. No. 112393)) was incubated to react for a certain time at 28° C. in a reaction system consisting of 50 mM HEPES, […], 0.0015% Brij-35 and basic kinase buffer; for FGFR1, the enzyme concentration was 0.25 nM and ATP concentration was 382 μM and the reaction time was 20 minutes; for FGFR2, the enzyme concentration was 2.5 nM, ATP concentration was 1 μM, and the reaction time was 40 minutes; for FGFR3, the enzyme concentration was 8 nM, ATP concentration was 4.7 μM, and the reaction time was 30 minutes: • 2. The reaction was terminated with a stop solution (100 mM HEPES, pH 7.5, 0.2% Caliper coating, reagent, 50 mM EDTA and 0.015% Brij35); • 3. The plate with the terminated kinase reaction was transferred to the Caliper workstation to read the data; • 4. the phosphorylated and unphosphorylated peptides were separated by the Caliper microfluid migration shift technique, and the analyte was transferred by a constant buffer flow through the chip, the migration of the substrate peptide was monitored by the labeled fluorescent signal, and the kinase activity was calculated by the amount of the phosphate-based peptide formed. • 5. IC50 was determined by non-linear regression analysis of percent inhibition at different concentration level of the compound.

For a further assay, the target named is FGFR2 (Homo sapiens (Human), UniProt P21802). The experiment in a line: In vitro biochemical kinase assay (Caliper Assay), FGFR2. The settings on record: enzyme 2.5 nM, ATP 1 μM, 40 minutes; read-out: Enzymatic activity IC50(nM) FGFR2. As for the experimental part: as §1, §2
FGFR2, sequence (P21802 22-821): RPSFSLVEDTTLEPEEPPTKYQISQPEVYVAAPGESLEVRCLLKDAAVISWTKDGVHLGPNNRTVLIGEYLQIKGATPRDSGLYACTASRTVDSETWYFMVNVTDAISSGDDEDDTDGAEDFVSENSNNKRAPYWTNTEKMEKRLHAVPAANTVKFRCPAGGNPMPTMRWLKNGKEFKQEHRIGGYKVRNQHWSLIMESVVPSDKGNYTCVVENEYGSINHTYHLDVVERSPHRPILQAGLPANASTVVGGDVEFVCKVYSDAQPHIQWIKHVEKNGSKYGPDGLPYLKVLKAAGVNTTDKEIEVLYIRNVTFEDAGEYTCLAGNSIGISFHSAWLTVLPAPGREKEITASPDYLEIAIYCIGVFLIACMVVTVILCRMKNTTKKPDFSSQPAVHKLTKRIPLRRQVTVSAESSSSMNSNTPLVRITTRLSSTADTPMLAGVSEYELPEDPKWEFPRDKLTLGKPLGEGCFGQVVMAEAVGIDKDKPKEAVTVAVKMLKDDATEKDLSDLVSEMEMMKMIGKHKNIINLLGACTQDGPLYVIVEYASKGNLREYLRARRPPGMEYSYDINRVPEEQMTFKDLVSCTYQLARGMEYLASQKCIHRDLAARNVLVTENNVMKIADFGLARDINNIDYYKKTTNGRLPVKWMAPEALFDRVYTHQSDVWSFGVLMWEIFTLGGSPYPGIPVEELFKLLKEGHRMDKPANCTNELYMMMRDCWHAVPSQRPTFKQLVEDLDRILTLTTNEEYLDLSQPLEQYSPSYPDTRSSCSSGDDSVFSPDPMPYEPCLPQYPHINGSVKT
In assay [1] the test system is Snu-16 gastric cancer cells (FGFR2 gene amplification). The experiment in a line: Cell proliferation assay (Cell Titer Glo), Snu-16. The assay is classed as cell-based. The following applies: Snu-16 cells, 3 days, CTG, read-out: Cellular IC50 (nM) Sun16. As for the experimental part: (§3) II. Cell Proliferation Assay (Cell Titer Glo(CTG) Assay)
(§4) The FGFR signal pathway dependent inhibitory effect of the compound in the present invention on cell proliferation was assessed by survival test using CTG reagent (Promega, 4G7573). Cell lines representative of a variety of tumor types, including H1581 lung cancer cells (FGFR1 gene amplification), Snu-16 gastric cancer cells (FGFR2 gene amplification), and RT112 bladder carcinoma cells (FGFR3-TACC3 fusion) from Nanjing Cobioer Biosciences, were selected for the assay. The specific experimental procedure was as follows: • 1. 90 μL of cells were seeded into a 96-well plate processed with TCM (Costar 43904), and incubated overnight at 37° C. in a 5% CO2 incubator; afterwards, 10 μL of the culture medium containing the compound at 10 fold of its final concentration was added; • 2. The dose-dependent effect was evaluated by a serial dilution of the test compound, starting from 10 μM or a lower concentration. • 3. The cells were incubated at 37° C. under 5% C02 for 3 days, then added 50 μL CTG, and read the data with Envision (Pelkin Elmer) to quantify the ATP level in the cells. The ATP levels in cells with treatment of inhibitor at a variety of concentrations were compared with those in cells of the control group (in which DMSO was added into the medium) to evaluate the compound percent inhibition of cell proliferation/survival. • 4. The compound half growth inhibitory concentration (IC50) was determined in Graphpad Prism by 4-parameter curve fitting.

The test system of assay [2] is H1581 lung cancer cells (FGFR1 gene amplification). Description: Cell proliferation assay (Cell Titer Glo), H1581. The settings on record: 3 days, CTG, read-out: Cellular IC50 (nM) H1581. The class given is cell-based. As for the experimental part: as §3, §4
Assay [3] relates to RT112 bladder carcinoma cells (FGFR3-TACC3 fusion). Description: Cell proliferation assay (Cell Titer Glo), RT112. The assay is classed as cell-based. The settings on record: Homo sapiens, RT-112, 72 h, 3 days, CTG, read-out: Cellular IC50 (nM) RT112. As to the method: as §3, §4

Where two headings read alike, the source gives them in different places. Some results are limits rather than exact numbers.

FGFR1, sequence (P11362 22-822): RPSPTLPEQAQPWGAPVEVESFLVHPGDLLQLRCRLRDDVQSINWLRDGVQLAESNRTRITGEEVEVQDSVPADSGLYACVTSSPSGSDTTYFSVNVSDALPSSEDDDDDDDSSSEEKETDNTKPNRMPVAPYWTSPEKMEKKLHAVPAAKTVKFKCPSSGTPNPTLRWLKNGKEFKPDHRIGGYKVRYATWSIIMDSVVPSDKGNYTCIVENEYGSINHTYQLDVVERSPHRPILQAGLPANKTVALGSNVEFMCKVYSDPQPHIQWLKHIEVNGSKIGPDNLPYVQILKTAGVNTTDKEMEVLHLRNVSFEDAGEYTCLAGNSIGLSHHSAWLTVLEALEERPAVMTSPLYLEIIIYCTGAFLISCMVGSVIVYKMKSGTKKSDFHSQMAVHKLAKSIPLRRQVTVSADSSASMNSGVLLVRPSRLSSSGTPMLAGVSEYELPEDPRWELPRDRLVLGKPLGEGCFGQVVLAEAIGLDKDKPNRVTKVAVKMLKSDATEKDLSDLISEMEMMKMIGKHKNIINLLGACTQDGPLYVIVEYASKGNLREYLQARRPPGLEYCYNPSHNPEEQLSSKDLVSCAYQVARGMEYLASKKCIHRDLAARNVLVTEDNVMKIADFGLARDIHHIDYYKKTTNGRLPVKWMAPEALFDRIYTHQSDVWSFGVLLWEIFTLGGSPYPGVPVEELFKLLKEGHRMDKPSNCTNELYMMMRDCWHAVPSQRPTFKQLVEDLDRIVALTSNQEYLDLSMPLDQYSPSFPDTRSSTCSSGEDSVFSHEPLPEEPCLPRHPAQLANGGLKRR

Turning to `COc1cc(OC)c(F)c(-c2cc3cnc(-c4cnn(C)c4)cc3n(C3CCCC3)c2=O)c1F` [Example 33, 1-cyclopentyl-3-(2,6-difluoro-3,5-dimethoxyphenyl)-7-(1-methyl-1H-pyrazol-4-yl)-1,6-naphthyridin-2(1H)-one], the IC50 on FGFR1 was at most 5 nM; on FGFR2, at most 5 nM; in assay [1] (Homo sapiens, SNU-16, 72 h), at most 5 nM; in assay [2] (Homo sapiens, NCI-H1581, 72 h), 10 to 50 nM.

In the case of `CCn1c(=O)c(-c2c(F)c(OC)cc(OC)c2F)cc2cnc(-c3cnn(C)c3)cc21` [Example 25, 3-(2,6-difluoro-3,5-dimethoxyphenyl)-1-ethyl-7-(1-methyl-1H-pyrazol-4-yl)-1,6-naphthyridin-2(1H)-one], the IC50 on FGFR1 was at most 5 nM; on FGFR2, at most 5 nM; in assay [1] (Homo sapiens, SNU-16, 72 h) it was 50 to 500 nM; in assay [2] (Homo sapiens, NCI-H1581, 72 h), 50 to 500 nM.

On to `COc1cc(OC)c(F)c(-c2cc3cnc(-c4cnn(CCN5CCOCC5)c4)cc3n(C3CCCC3)c2=O)c1F` [Example 34, 1-cyclopentyl-3-(2,6-difluoro-3,5-dimethoxyphenyl)-7-(1-(2-morpholinoethyl)-1H-pyrazol-4-yl)-1,6-naphthyridin-2(1H)-one], for which the IC50 in assay [1] (Homo sapiens, SNU-16, 72 h) was at most 5 nM; in assay [2] (Homo sapiens, NCI-H1581, 72 h) it was 10 to 50 nM; in assay [3], at most 5 nM.

As to `CCn1c(=O)c(-c2c(F)c(OC)cc(OC)c2F)cc2cnc(-c3cnn(CCN4CCOCC4)c3)cc21` [Example 29, 3-(2,6-difluoro-3,5-dimethoxyphenyl)-1-ethyl-7-(1-(2-morpholinoethyl)-1H-pyrazol-4-yl)-1,6-naphthyridin-2(1H)-one], the IC50 at FGFR1 was 5 to 10 nM; on FGFR2, at most 5 nM; in assay [1] (Homo sapiens, SNU-16, 72 h), 10 to 50 nM; in assay [2] (Homo sapiens, NCI-H1581, 72 h), 50 to 500 nM.

As to `CCn1c(=O)c(-c2c(Cl)c(OC)cc(OC)c2Cl)cc2cnc(-c3cn(C4CCN(C)C4)nc3C)cc21` (stereo not drawn) [Example 46, 3-(2,6-dichloro-3,5-dimethoxyphenyl)-1-ethyl-7-(3-methyl-1-(1-methylpyrrolidin-3-yl)-1H-pyrazol-4-yl)-1,6-naphthyridin-2(1H)-one], the concentration for half-maximal inhibition (IC50) on FGFR1 is 10 to 50 nM; at FGFR2, at most 5 nM; in assay [1] (Homo sapiens, SNU-16, 72 h), 10 to 50 nM; in assay [2] (Homo sapiens, NCI-H1581, 72 h), 50 to 500 nM.

With `COc1cc(OC)c(Cl)c(-c2cc3cnc(-c4cnn(C)c4)cc3n(CC3CC3)c2=O)c1Cl` [Example 4, 1-(cyclopropylmethyl) 3-(2,6-dichloro-3,5-dimethoxyphenyl)-7-(1-methyl-1H-pyrazol-4-yl)-1,6-naphthyridin-2(1H)-one], the IC50 on FGFR1 was 10 to 50 nM; at FGFR2, at most 5 nM; in assay [1] (Homo sapiens, SNU-16, 72 h), 50 to 500 nM; in assay [2] (Homo sapiens, NCI-H1581, 72 h), 50 to 500 nM.

For the compound `COc1cc(OC)c(F)c(-c2cc3cnc(-c4cnn(CCN5CCOCC5)c4)cc3n(C3CCOC3)c2=O)c1F` (stereo not drawn) [Example 35, 3-(2,6-difluoro-3,5-dimethoxyphenyl)-7-(1-(2-morpholinoethyl)-1H-pyrazol-4-yl)-1-(tetrahydrofuran-3-yl)-1,6-naphthyridin-2(1H)-one], the IC50 in assay [1] (Homo sapiens, SNU-16, 72 h) was 5 to 10 nM; in assay [2] (Homo sapiens, NCI-H1581, 72 h) it was 50 to 500 nM; in assay [3], at most 5 nM.

`CCn1c(=O)c(-c2c(Cl)c(OC)cc(OC)c2Cl)cc2cnc(-c3cnn(C4CN(S(C)(=O)=O)C4)c3)cc21` [Example 11, 3-(2,6-dichloro-3,5-dimethoxyphenyl)-1-ethyl-7-(1-(1-(methylsulfonyl)azetidin-3-yl)-1H-pyrazol-4-yl)-1,6-naphthyridin-2(1H)-one]: the IC50 on FGFR1 was 10 to 50 nM; at FGFR2, at most 5 nM; in assay [1] (Homo sapiens, SNU-16, 72 h), 10 to 50 nM; in assay [2] (Homo sapiens, NCI-H1581, 72 h), 50 to 500 nM.

For `COc1cc(OC)c(F)c(-c2cc3cnc(-c4ccc(C(C)(C)C#N)nc4)cc3n(C3CCOC3)c2=O)c1F` (stereo not drawn) [Example 40, 2-(5-(3-(2,6-difluoro-3,5-dimethoxyphenyl)-2-oxo-1-(tetrahydrofuran-3-yl)-1,2-dihydro-1,6-naphthyridin-7-yl)pyridin-2-yl)-2-methylpropanenitrile], the IC50 is 5 to 10 nM on FGFR1; at most 5 nM on FGFR2; 5 to 10 nM in assay [1] (Homo sapiens, SNU-16, 72 h); 50 to 500 nM in assay [2] (Homo sapiens, NCI-H1581, 72 h).

Turning to `COc1cc(OC)c(Cl)c(-c2cc3cnc(-c4cnn(CCN(C)C)c4)cc3n(C3CCOC3)c2=O)c1Cl` (stereo not drawn) [Example 48, 3-(2,6-dichloro-3,5-dimethoxyphenyl)-7-(1-(2-(dimethylamino)ethyl)-1H-pyrazol-4-yl)-1-(tetrahydrofuran-3-yl)-1,6-naphthyridin-2(1H)-one], the IC50 at FGFR1 is 10 to 50 nM; on FGFR2, at most 5 nM; in assay [1] (Homo sapiens, SNU-16, 72 h), 5 to 10 nM; in assay [2] (Homo sapiens, NCI-H1581, 72 h), 50 to 500 nM.

Take `COc1cc(OC)c(Cl)c(-c2cc3cnc(-c4cnn(C)c4)cc3n(C(C)C)c2=O)c1Cl` [Example 3, 3-(2,6-dichloro-3,5-dimethoxyphenyl)-1-isopropyl-7-(1-methyl-1H-pyrazol-4-yl)-1,6-naphthyridin-2(1H)-one]: the IC50 is 5 to 10 nM on FGFR1 and at most 5 nM at FGFR2.

Turning to `COc1cc(OC)c(Cl)c(-c2cc3cnc(-c4cnn(C)c4)cc3n(CCN3CCOCC3)c2=O)c1Cl` [Example 5, 3-(2,6-dichloro-3,5-dimethoxyphenyl)-7-(1-methyl-1H-pyrazol-4-yl)-1-(2-morpholinoethyl)-1,6-naphthyridin-2(1H)-one], the IC50 on FGFR1 lay within 50 to 500 nM; at FGFR2, 10 to 50 nM; in assay [1] (Homo sapiens, SNU-16, 72 h), 10 to 50 nM; in assay [2] (Homo sapiens, NCI-H1581, 72 h), 50 to 500 nM.

With `CCn1c(=O)c(-c2cc(OC)cc(OC)c2Cl)cc2cnc(-c3cnn(C)c3)cc21` [Example 13, 3-(2-chloro-3,5-dimethoxyphenyl)-1-ethyl-7-(1-methyl-1H-pyrazol-4-yl)-1,6-naphthyridin-2(1H)-one], the values for the concentration for half-maximal inhibition (IC50) on FGFR1 and at FGFR2 were 50 to 500 nM and 5 to 10 nM, respectively.

For `CCn1c(=O)c(-c2c(Cl)c(OC)cc(OC)c2Cl)cc2cnc(-c3cnn(C)c3)cc21` [Example 1, 3-(2,6-dichloro-3,5-dimethoxyphenyl)-1-ethyl-7-(1-methyl-1H-pyrazol-4-yl)-1,6-naphthyridin-2(1H)-one], the IC50 on FGFR1 is 10 to 50 nM; at FGFR2, at most 5 nM.

For `COc1cc(OC)c(Cl)c(-c2cc3cnc(-c4cnn(C)c4)cc3n([C@H]3CCOC3)c2=O)c1Cl` [Example 22, (S)-3-(2,6-dichloro-3,5-dimethoxyphenyl)-7-(1-methyl-1H-pyrazol-4-yl)-1-(tetrahydrofuran-3-yl)-1,6-naphthyridin-2(1H)-one], the IC50 is at most 5 nM on FGFR1, at most 5 nM at FGFR2, at most 5 nM in assay [1] and 10 to 50 nM in assay [2].

For `COc1cc(OC)c(F)c(-c2cc3cnc(-c4cnn(CCN5CCOCC5)c4)cc3n(C(C)C)c2=O)c1F` [Example 30, 3-(2,6-difluoro-3,5-dimethoxyphenyl)-1-isopropyl-7-(1-(2-morpholinoethyl)-1H-pyrazol-4-yl)-1,6-naphthyridin-2(1H)-one], the IC50 is at most 5 nM at FGFR1; at most 5 nM at FGFR2; at most 5 nM in assay [1] (Homo sapiens, SNU-16, 72 h); 10 to 50 nM in assay [2] (Homo sapiens, NCI-H1581, 72 h).

With `COc1cc(OC)c(Cl)c(-c2cc3cnc(-c4cnn(C)c4)cc3n(C3CCOC3)c2=O)c1Cl` (stereo not drawn) [Example 7, 3-(2,6-dichloro-3,5-dimethoxyphenyl)-7-(1-methyl-1H-pyrazol-4-yl)-1-(tetrahydrofuran-3-yl)-1,6-naphthyridin-2(1H)-one], the IC50 was at most 5 nM on FGFR1; at most 5 nM on FGFR2; 5 to 10 nM in assay [1] (Homo sapiens, SNU-16, 72 h); 10 to 50 nM in assay [2] (Homo sapiens, NCI-H1581, 72 h).
